This is an account of results in patent US20260248794A1, “METHODS AND MATERIALS FOR PROMOTING BONE GROWTH” (Mayo Foundation for Medical Education and Research, priority 2022, published 2026).

Entries after “also recorded” stand apart in the source; their conditions may differ.

One experiment concerns H3K27me3 in MC3T3 cells. Put plainly: Western blotting for H3K27me3 in MC3T3 cells treated with EED inhibitor. The class given is cell-based, murine. To be noted: A-395 at 0.02-10 mM as printed, FIG. 5A. The protocol:
MC3T3 sc4 murine calvarial osteoblasts were purchased from American Type Culture Collection and maintained in α-minimal essential medium without ascorbic acid (Gibco) containing 10% fetal bovine serum (Atlanta Biologicals), 100 units/mL penicillin, and 100 µg/mL streptomycin (Gibco).
MC3T3 cells (4,000 cells/cm^2) were plated in 6-well plates in maintenance medium. […] Cells were lysed in radioimmunoprecipitation buffer (150 mm NaCl, 50 mm Tris, pH 7.4, 1% sodium deoxycholate, 0.1% sodium dodecyl sulfate, 1% Triton X-100) supplemented with protease inhibitor mixture (Sigma) and phenylmethylsulfonyl fluoride (Sigma). Lysates were cleared by centrifugation. Protein concentrations were determined by the DC Protein Assay (Bio-Rad). Proteins were resolved by SDS-PAGE and transferred to polyvinylidene difluoride membranes. After blocking in 5% nonfat dry milk for 45 minutes at room temperature, primary antibodies were added overnight at 4° C., followed by secondary antibodies for 1 hour at room temperature. Proteins were visualized using an ECL Prime detection kit.
(In general: In western blotting, separated proteins are transferred to a membrane and probed.)

For experiment [1], the system named is G610C mice. The experiment is described as follows: μCT analysis of large cohort of G610C mice treated with MAK683. It counts as in vivo. The conditions noted are these: for bone density (μCT) / trabecular structure: G610C mice; for bone density (μCT): 3 weeks, 9 mice per group; for trabecular structure: vs vehicle treated control; for bone quality parameters: OI mice. How it is done: One day prior to treatment 5-week-old male G610C mice were weighed to determine dosing. MAK683 was dissolved in DMSO for each treatment arm of 5, 10, 20, or 50 mg/kg for selected mice. The volume was adjusted to […] for injection using corn oil. Mice were injected subcutaneously twice weekly for 3 weeks. After 3 weeks, mice were euthanized, and bone was harvested.
To further examine if different doses of MAK683 improved bone formation in 01, SQ nine 5-week-old male G610C mice were injected with 50, 20, 10, or 5 mg/kg MAK683 twice a week for 3 weeks.

Experiment [2] relates to G610C mice. The experiment is described as follows: μCT analysis of G610C mice treated with MAK683 for 3 weeks (three mice). It counts as in vivo. The conditions noted are these: for bone density / trabecular structure: G610C mice, vs vehicle treated control; for bone parameters (μCT) vs controls: male G610C mice, 3 weeks. How it is done: To determine if MAK683 improved bone formation in OI, three 5-week-old male G610C mice were injected SQ with 50 mg/kg MAK683 twice a week for 3 weeks.

For another experiment, the system named is OVX mice. Put plainly: μCT analysis of OVX mice treated with MAK683. The class given is in vivo, C57BL/6 female mice. The protocol: To assess whether EED inhibition could rescue low bone mass due to osteoporosis, ovariectomy (OVX) or sham (Sham) surgery on was performed 15-week-old C57BL/6 female mice with 6 animals per group. On the day of surgery, all mice were imaged using a PIXImus densitometer to measure bone density prior to OVX. Mice were allowed 7 days to recover. Mice in each group were randomized to EED inhibitor treatment or control. These groups were sham/vehicle (Sh−), sham/EED (SH+), OVX/vehicle (OV−), and OVX/EED (OV+). Again, each mouse was imaged to determine bone density after OVX prior to EED treatment. Mice were then injected with vehicle control or 20 mg/kg MAK683 SQ twice weekly for 3 weeks.

Setting [3] is: 20 mg/kg, vs OVX vehicle treated control.

`CS(=O)(=O)c1ccc(-c2cnc(NCc3ccco3)n3cnnc23)cc1` [EED226, n-(2-furanylmethyl)-8-[4-(methylsulfonyl)phenyl]-1,2,4-triazolo[4,3-c]pyrimidin-5-amine]: the “H3K27me3 (western blotting)” value with H3K27me3 in MC3T3 cells is listed as “reduced H3K27me3 in a concentration-dependent manner”.

On to `Cc1ncccc1-c1cnc(NCc2c(F)ccc3c2CCO3)n2cnnc12` [MAK683, N-[(5-fluoro-2,3-dihydro-1-benzofuran-4-yl)methyl]-8-(2-methylpyridin-3-yl)-[1,2,4]triazolo[4,3-c]pyrimidin-5-amine], for which the “bone density (μCT)” value with G610C mice [1] (5 mg/kg SQ twice a week) is “possible minor improvement”; in the experiment on G610C mice [1] (10 mg/kg SQ twice a week, 10 mg/kg), “visual improvement; also recorded: significant increase”; in the experiment on G610C mice [1] (20 mg/kg SQ twice a week, 20 mg/kg) it was “visual improvement; also recorded: significant increase”; in the experiment with G610C mice [1] (50 mg/kg SQ twice a week), “possible minor improvement”. The trabecular structure entry in the experiment on G610C mice [1] (10 mg/kg), in the experiment on G610C mice [1] (20 mg/kg), in the experiment on G610C mice [2] (20 mg/kg) and with G610C mice [2] (50 mg/kg) was “significant increase” in each case. Further, the “bone parameters (μCT) vs controls” value is on record as “improvement in many bone parameters” with G610C mice [1] (G610C mice, 50, 20, 10, or 5 mg/kg, FIG. 17B-M); “improvement in essentially all bone parameters” in the experiment on G610C mice [2] (20 mg/kg SQ twice a week); “improvement in many bone parameters” in the experiment on G610C mice [2] (50 mg/kg SQ twice a week). Moreover, the bone quality parameters result with G610C mice [1] (5 mg/kg) and in the experiment with G610C mice [1] (50 mg/kg) was “trend in increased” each time. Moreover, the bone density entry is on record as “significant increase” in the experiment with G610C mice [2] (20 mg/kg), “significant increase” in the experiment with G610C mice [2] (50 mg/kg) and “significant intention” with OVX mice (setting [3]). For the same molecule, the “bone loss (μCT)” value in the experiment with OVX mice (20 mg/kg SQ twice weekly, 3 weeks) is recorded as “prevented bone loss”. Moreover, in the experiment with OVX mice (setting [3]), the trabecular number result was “significant intention”.
